# Assay results published in US8796327B2, “Method for inhibiting production of cytokines of T helper cell type II and/or inhibiting production of chemokines using brazilin” (China Medical University, priority 2010, dated 2014).
# Tests used:
# IL-4 = test: ELISA of IL-4 in supernatant of EL-4 T lymphoma cells; format: cell-based, mouse; conditions: EL-4 cells
# Description: First, in an incubator containing 5 vol % of CO2 at 37° C., EL-4 mouse T lymphoma cells (commercially available from ATCC, Manassas, Va., America) were cultured in the DMEM culture medium (containing 10 wt % of thermally deactivated FBS), and were sub-cultured at a ratio of 1:3.
# (§1) Then, at a density of 5×10^5 counts/ml, the T lymphoma cells were bred in a six-well culture dish, and at the 0th minute, brazilin of different concentrations (0.3, 1, 3, 10, or 30 micromole (μM)) was added into the cell culture solution at an amount of 1 μl/ml-cell culture solution. Then, the cells were put into the incubator to be cultured therein. 30 minutes later, at an amount of 1 μl/ml-cell culture solution, 5 μg/ml PMA and cAMP at a 250 mmol concentration were added to the cell culture solution to stimulate the expression of IL-4 and IL-5 of the T lymphoma cells. During the process of cell culture, the trypan blue exclusion assay was employed to observe effect of the brazilin on the cell viability, results of which are shown in Table 1 and FIG. 1.
# At 4° C., the T lymphoma cells obtained from Experiment A were centrifugally rotated at a rotational speed of 1000 rpm and at 4° C. for 5 minutes, and the supernatant was collected and analyzed for cytokines.
# An enzyme-linked immunosorbent assay (ELISA) kit (commercially available from R&D Systems, Inc., America) was used to analyze the expression of IFN-γ, IL-4, IL-5, and eotaxin cytokines in the aforesaid supernatant, results of which are shown in Table 2, Table 3, FIG. 2, and FIG. 3.
# In Experiment B and the following Experiment C, all experimental data are presented in form of “mean±standard deviation”, and statistical discrepancy was analyzed by means of the One-way ANOVA and Newman-keuls post-hoc tests, in which it is considered that there is statistical discrepancy if p<0.05.
# IL-4 mRNA = test: Real-time PCR of IL-4 mRNA in EL-4 T lymphoma cells; format: cell-based, mouse; conditions: for Expression level of IL-4 mRNA: PMA + cAMP stimulated EL-4 cells, corrected to HPRT
# Description: as §1
# Expression of mRNA of IL-4, IL-5, GATA-3, c-maf, and T-bet were analyzed in a quantitative way through real-time polymerase chain reaction (PCR) by extracting RNA in the cells obtained in Experiment A (using an RNA purifying kit), converting the RNA into cDNA through reverse transcription, and using an ABI PRISM 7700 sequence detector (Applied Biosystems, Foster City, Calif., America) to analyze the gene expression of mRNA. The PCR was carried out under the following conditions: 50° C., 2 minutes; 95° C., 10 minutes; 60° C., 1 minute; then repeating this cycle forty times. A threshold cycle (or referred to as Ct) was used to represent the expression level of each gene, and an expression level of hypoxanthine-guanine phosphoribosy transferase (HPRT) genes of the endogenous control group was used for correction of the expression level of mRNA.
# [1] = tested on: macrophages, lymphocytes, eosinophils, and neutrophils in bronochial alveolar lavage fluid; test: Immunocyte counts in bronochial alveolar lavage fluid, mice with asthma (OVA); format: in vivo; conditions: OVA-sensitized BALB/c mice; for Number of eosinophils (×10^4) / Number of lymphocytes (×10^4) / Number of macrophages (×10^4) / Number of neutrophils (×10^4): i.p. or i.t., bronochial alveolar lavage fluid
# Description: (§2) In Example 2, mice with asthma were used to conduct in vivo experiments, and ovalbumin (OVA) was used as an allergen.
# (§3) The mice were sensitized (or challenged) according to the steps shown in FIG. 9 (see Lee et al., Lentiviral-mediated GATA-3 RNAi decreases allergic airway inflammation and hyperresponsiveness. Molecular Therapy, 2008; 16:60-65, which is incorporated herein in its entirety by reference). First, 50 μg OVA (using 2 mg alumina (Alum, Alumlmuject, Pierce Chemical, Rockford, Ill., USA) as an adjuvant) was injected into six to eight-week-old BALB/c female mice (from National Laboratory Animal Center, Taiwan) by intraperitoneal injection (i.p.). At 0th, 14th, and 28th day, the mice were injected with OVA at the same dosage. Before the administration of OVA at the forty-first and the forty-second days, different dosages of brazilin (high dose: 430 μg/mice; low dose: 43 μg/mice) were administrated to the mice by intraperitoneal injection (i.p.) or intratracheal instillation (i.t.). During the fortieth to the forty-second days, 100 μg OVA was dissolved in 40 μl PBS, and was administrated to the mice by intranasal instillation (i.n.) (once everyday, for three days). At the forty-third day, airway hyperresponsiveness of the mice was observed. At the forty-sixth day, the mice were sacrificed and used to conduct the following Experiments E to G During the above procedure, it was observed if any toxicity response arises after the administration of brazilin to the mice. In this experiment, the mice administrated with OVA were used as a positive control, and the mice not administrated with OVA were used as a negative control.
# In Experiment D, after 24 hours from the last administration of OVA into the noses of the mice, the mice were sacrificed, and the blood was collected from the orbital cavities of the mice. Then, a cannula was immediately inserted into the bronchi of the mice, and the lungs of the mice were washed with a 1 ml HBSS buffer solution containing no calcium and magnesium ions three times, and a bronochial alveolar lavage fluid is collected. The fluid was centrifuged at 4° C. and with a revolution speed of 400 g for 10 minutes. Cells obtained after the centrifugation were re-suspended in a 1 ml HBSS buffer solution, and the total cell number was counted with a hemocytometer.
# Then, the cells were fixed on a glass sheet in a way of cytocentrifuged preparations, and the Liu's stain (see Lee et al., Lentiviral-mediated GATA-3 RNAi decreases allergic airway inflammation and hyperresponsiveness. Molecular Therapy. 2008; 16:60-65, which is incorporated herein in its entirety by reference) was carried out to calculate the number of various kinds of cells. The cell number was calculated by counting the number of macrophages, lymphocytes, eosinophils, and neutrophils in 300 cells respectively. The cells were categorized according to their standard morphology, and the invasion of inflammatory cells into the lungs was observed.
# IL-5 = test: ELISA of IL-5 in bronochial alveolar lavage fluid, mice with asthma (OVA); format: in vivo, BALB/c mice; conditions: for IL-5 concentration (pico-gram/ml): i.p. or i.t., OVA-sensitized BALB/c mice
# Description: as §2
# as §3, with “At the forty-sixth day, the mice were sacrificed and used to conduct the following Experiments E to G During the above procedure, it was observed if any toxicity response arises after the administration of brazilin to the mice. In this experiment, the mice administrated with OVA were used as a positive control, and the mice not administrated with OVA were used as a negative control.” left out
# In Experiment D, after 24 hours from the last administration of OVA into the noses of the mice, the mice were sacrificed, and the blood was collected from the orbital cavities of the mice. […] Cells obtained after the centrifugation were re-suspended in a 1 ml HBSS buffer solution, and the total cell number was counted with a hemocytometer.
# The bronochial alveolar lavage fluid collected in Experiment E was centrifuged at 4° C. and with a revolution speed of 400 g for 10 minutes. After the supernatant was collected, the expression of eotaxin, IL-4, IL-5, and IFN-γ was analyzed with an ELISA kit (R&D Systems, Inc., USA). […]
smiles,measurement,setting,value
Oc1ccc2c(c1)OC[C@]1(O)Cc3cc(O)c(O)cc3[C@H]21 [brazilin],expression of protein of IL-4 cytokine,IL-4; result in words,inhibited
same,Concentration of IL-4 (pico-gram/ml),IL-4; brazilin 0.3 μM + PMA + cAMP,23.93 ± 2.214 pico-gram/ml
same,Concentration of IL-4 (pico-gram/ml),IL-4; brazilin 1 μM + PMA + cAMP,22.49 ± 1.969 pico-gram/ml
same,Concentration of IL-4 (pico-gram/ml),IL-4; brazilin 3 μM + PMA + cAMP,23.45 ± 2.693 pico-gram/ml
same,Concentration of IL-4 (pico-gram/ml),IL-4; brazilin 10 μM + PMA + cAMP,23.13 ± 2.297 pico-gram/ml
same,Concentration of IL-4 (pico-gram/ml),IL-4; brazilin 30 μM + PMA + cAMP,18.71 ± 1.206 pico-gram/ml
same,expression of mRNA of IL-4,"IL-4 mRNA; EL-4 cells, result in words",inhibited
same,Expression level of IL-4 mRNA,IL-4 mRNA; brazilin 0.3 μM,2.228 ± 0.4786
same,Expression level of IL-4 mRNA,IL-4 mRNA; brazilin 1 μM,2.028 ± 0.1794
same,Expression level of IL-4 mRNA,IL-4 mRNA; brazilin 3 μM,2.136 ± 0.2671
same,Expression level of IL-4 mRNA,IL-4 mRNA; brazilin 10 μM,1.835 ± 0.2712
same,Expression level of IL-4 mRNA,IL-4 mRNA; brazilin 30 μM,1.478 ± 0.1441
same,Number of eosinophils (×10^4),[1]; High dose (430 μg/mice),10.52 ± 4.543 ×10^4
same,Number of lymphocytes (×10^4),[1]; High dose (430 μg/mice),0.8106 ± 0.3015 ×10^4
same,Number of macrophages (×10^4),[1]; High dose (430 μg/mice),34.25 ± 4.970 ×10^4
same,Number of neutrophils (×10^4),[1]; High dose (430 μg/mice),0.2178 ± 0.1799 ×10^4
same,Number of eosinophils (×10^4),[1]; Low dose (43 μg/mice),21.39 ± 1.491 ×10^4
same,Number of lymphocytes (×10^4),[1]; Low dose (43 μg/mice),0.7421 ± 0.2902 ×10^4
same,Number of macrophages (×10^4),[1]; Low dose (43 μg/mice),41.67 ± 6.885 ×10^4
same,Number of neutrophils (×10^4),[1]; Low dose (43 μg/mice),0.6476 ± 0.2759 ×10^4
same,number of eosinophils in the lungs of the mice,[1]; result in words,decreased
same,production of IL-5 cytokine,"IL-5; BALB/c mice, result in words",inhibited
same,IL-5 concentration (pico-gram/ml),IL-5; High dose (430 μg/mice),52.10 ± 6.223 pico-gram/ml
same,IL-5 concentration (pico-gram/ml),IL-5; Low dose (43 μg/mice),70.65 ± 6.510 pico-gram/ml
